Experimental data from ChEMBL document CHEMBL5614416, “Discovery of novel thiophene[3,2-d]pyrimidine-based tubulin inhibitors with enhanced antitumor efficacy for combined use with anti-pd-l1 immunotherapy in melanoma” (Eur J Med Chem, 2024).
The source made the active and inactive calls. The rule behind the calls is not given here.

What was measured:
[1] = Toxicity in C57 mouse xenografted with mouse B16-F10 cells assessed as MCV level at 7 mg/kg, ip qd for 12 days by biochemical analysis (reference value: 15.800 to 48.900 fL); assay type: organism-based; details: in vivo, 288 h, time 12 day
[2] = Toxicity in C57 mouse xenografted with mouse B16-F10 cells assessed as lymphocytes level at 3.5 mg/kg, ip qd for 12 days in presence of NP-19 by biochemical analysis (reference value: 7.300 to 65.500 %); assay type: organism-based; details: in vivo, 288 h, time 12 day
[3] = system: HeLa; experiment: Antiproliferative activity against human HeLa cells incubated for 48 hrs by MTT assay; assay type: functional, cell-based
[4] = Toxicity in C57 mouse xenografted with mouse B16-F10 cells assessed as morphological abnormality in kidney at 3.5 mg/kg, ip qd for 12 days in presence of NP-19 by H and E staining based analysis; assay type: organism-based; details: in vivo, 288 h, time 12 day
[5] = system: B16-F10; experiment: Induction of cell cycle arrest in mouse B16-F10 cells assessed as accumulation of cells at G1 phase at 0.5 nM incubated for 12 hrs by flow cytometry (reference value: 52.0 %); assay type: functional
[6] = system: B16-F10; experiment: Induction of apoptosis in mouse B16-F10 cells assessed as necrotic cells at 1 nM incubated for 12 hrs by Annexin V-FITC/PI staining based flow cytometry (reference value: 0.25 %); assay type: functional
[7] = Toxicity in C57 mouse xenografted with mouse B16-F10 cells assessed as eosinophil level at 3.5 mg/kg, ip qd for 12 days in presence of NP-19 by biochemical analysis (reference value: 0.700 to 1.000 %); assay type: organism-based; details: in vivo, 288 h, time 12 day
[8] = Toxicity in C57 mouse xenografted with mouse B16-F10 cells assessed as morphological abnormality in liver at 3.5 mg/kg, ip qd for 12 days in presence of NP-19 by H and E staining based analysis; assay type: organism-based; details: in vivo, 288 h, time 12 day
[9] = system: HepG2; experiment: Antiproliferative activity against human HepG2 cells incubated for 48 hrs by MTT assay; assay type: functional, cell-based; details: HepG2, 48 h
[10] = system: MCF7; experiment: Inhibition of cell migration in human MCF7 cells assessed as migration rate at 1 nM incubated for 24 hrs by wound healing assay (reference value: 18.1 %); assay type: functional; parameters: scale not given: the % may be the effect or the level left
[11] = system: B16-F10; experiment: Induction of apoptosis in mouse B16-F10 cells assessed as necrotic cells at 2 nM incubated for 12 hrs by Annexin V-FITC/PI staining based flow cytometry (reference value: 0.25 %); assay type: functional
[12] = Toxicity in C57 mouse xenografted with mouse B16-F10 cells assessed as morphological abnormality in kidney at 7 mg/kg, ip qd for 12 days by H and E staining based analysis; assay type: organism-based; details: in vivo, 288 h, time 12 day
[13] = system: B16-F10; experiment: Induction of cell cycle arrest in mouse B16-F10 cells assessed as accumulation of cells at G1 phase at 2 nM incubated for 12 hrs by flow cytometry (reference value: 52.0 %); assay type: functional
[14] = system: B16-F10; experiment: Induction of apoptosis in mouse B16-F10 cells assessed as decrease in Bcl-2 level upto 30 nM incubated for 24 hrs by Western blot analysis; assay type: functional, cell-based
[15] = Toxicity in C57 mouse xenografted with mouse B16-F10 cells assessed as morphological abnormality in heart at 7 mg/kg, ip qd for 12 days by H and E staining based analysis; assay type: organism-based; details: in vivo, 288 h, time 12 day
[16] = system: B16-F10; experiment: Induction of apoptosis in mouse B16-F10 cells assessed as increase in Bax level upto 30 nM incubated for 24 hrs by Western blot analysis; assay type: functional, cell-based
[17] = system: B16-F10; experiment: Induction of apoptosis in mouse B16-F10 cells assessed as viable cells at 2 nM incubated for 12 hrs by Annexin V-FITC/PI staining based flow cytometry (reference value: 93.6 %); assay type: functional; details: read-out: Activity
[18] = system: B16-F10; experiment: Induction of cell cycle arrest in mouse B16-F10 cells assessed as accumulation of cells at G2 phase at 2 nM incubated for 12 hrs by flow cytometry (reference value: 13.6 %); assay type: functional
[19] = system: B16-F10; experiment: Antitumor activity against mouse B16-F10 cells xenografted in C57 mouse at 7 mg/kg, ip qd for 12 days relative to control; assay type: functional; details: B16-F10, 288 h, time 12 day, read-out: TGI
[20] = system: B16-F10; experiment: Induction of apoptosis in mouse B16-F10 cells assessed as late apoptotic cells at 1 nM incubated for 12 hrs by Annexin V-FITC/PI staining based flow cytometry (reference value: 2.39 %); assay type: functional
[21] = Toxicity in C57 mouse xenografted with mouse B16-F10 cells assessed as neutrophil count at 7 mg/kg, ip qd for 12 days by biochemical analysis (reference value: 2.130 to 5.46 10^9/L); assay type: organism-based; details: in vivo, 288 h, time 12 day
[22] = Toxicity in C57 mouse xenografted with mouse B16-F10 cells assessed as MPV level at 7 mg/kg, ip qd for 12 days by biochemical analysis (reference value: 6.200 to 15.000); assay type: organism-based; details: in vivo, 288 h, time 12 day
[23] = system: B16-F10; experiment: Induction of apoptosis in mouse B16-F10 cells assessed as late apoptotic cells at 2 nM incubated for 12 hrs by Annexin V-FITC/PI staining based flow cytometry (reference value: 2.39 %); assay type: functional
[24] = Toxicity in C57 mouse xenografted with mouse B16-F10 cells assessed as basophil count at 7 mg/kg, ip qd for 12 days by biochemical analysis (reference value: 0.060 to 25.500 10^9/L); assay type: organism-based; details: in vivo, 288 h, time 12 day
[25] = Toxicity in C57 mouse xenografted with mouse B16-F10 cells assessed as neutrophil count at 3.5 mg/kg, ip qd for 12 days in presence of NP-19 by biochemical analysis (reference value: 2.130 to 5.46 10^9/L); assay type: organism-based; details: in vivo, 288 h, time 12 day
[26] = Toxicity in C57 mouse xenografted with mouse B16-F10 cells assessed as lymphocytes level at 7 mg/kg, ip qd for 12 days by biochemical analysis (reference value: 7.300 to 65.500 %); assay type: organism-based; details: in vivo, 288 h, time 12 day
[27] = Toxicity in C57 mouse xenografted with mouse B16-F10 cells assessed as MCV level at 3.5 mg/kg, ip qd for 12 days in presence of NP-19 by biochemical analysis (reference value: 15.800 to 48.900 fL); assay type: organism-based; details: in vivo, 288 h, time 12 day
[28] = system: B16-F10; experiment: Antitumor activity against mouse B16-F10 cells xenografted in C57 mouse at 3.5 mg/kg, ip qd for 12 days in presence of NP-19 relative to control; assay type: functional; details: B16-F10, 288 h, time 12 day, read-out: TGI
[29] = system: B16-F10; experiment: Induction of cell cycle arrest in mouse B16-F10 cells assessed as accumulation of cells at G1 phase at 1 nM incubated for 12 hrs by flow cytometry (reference value: 52.0 %); assay type: functional
[30] = Toxicity in C57 mouse xenografted with mouse B16-F10 cells assessed as body weight change at 3.5 mg/kg, ip qd for 12 days in presence of NP-19; assay type: organism-based; details: in vivo, 288 h, time 12 day
[31] = system: B16-F10; experiment: Induction of apoptosis in mouse B16-F10 cells assessed as early apoptotic cells at 2 nM incubated for 12 hrs by Annexin V-FITC/PI staining based flow cytometry (reference value: 3.81 %); assay type: functional
[32] = system: B16-F10; experiment: Induction of cell cycle arrest in mouse B16-F10 cells assessed as accumulation of cells at G2 phase at 0.5 nM incubated for 12 hrs by flow cytometry (reference value: 13.6 %); assay type: functional

**Q.** For Cc1nc(N(C)c2ccc3c(ccn3C)c2)c2sccc2n1, which Activity [1] is on record?
**A.** 15.8 fL

**Q.** And the Activity [2]?
**A.** 2.4%

**Q.** What about the IC50 [3] of the same compound?
**A.** 5.37 nM

**Q.** And the Activity [4]?
**A.** Non-Toxic

**Q.** What about the Activity [5] of the same compound?
**A.** 21.3%

**Q.** And the Activity [6]?
**A.** 4.4%

**Q.** And the Activity [7]?
**A.** 0.3%

**Q.** And the Activity [8]?
**A.** Non-Toxic

**Q.** And the IC50 [9]?
**A.** 9.37 nM

**Q.** And the Activity [10]?
**A.** 15.7%

**Q.** What about the Activity [11] of the same compound?
**A.** 1.76%

**Q.** And the Activity [12]?
**A.** Non-Toxic

**Q.** What about the Activity [13] of the same compound?
**A.** 5.24%

**Q.** And the Activity [14]?
**A.** Active

**Q.** What about the Activity [15] of the same compound?
**A.** Non-Toxic

**Q.** What about the Activity [16] of the same compound?
**A.** Active

**Q.** What about the viability at 0.002 µM [17] of the same compound?
**A.** 75%

**Q.** What about the Activity [18] of the same compound?
**A.** 72.8%

**Q.** And the inhibition in vivo at 7 mg/kg [19]?
**A.** 63.3%

**Q.** What about the Activity [20] of the same compound?
**A.** 7.92%

**Q.** And the Activity [21]?
**A.** 0.85 10^9/L

**Q.** And the Activity [22]?
**A.** 6

**Q.** And the Activity [23]?
**A.** 8.65%

**Q.** What about the Activity [24] of the same compound?
**A.** 0.01 10^9/L

**Q.** What about the Activity [25] of the same compound?
**A.** 1.38 10^9/L

**Q.** What about the Activity [26] of the same compound?
**A.** 2.2%

**Q.** And the Activity [27]?
**A.** 15.7 fL

**Q.** And the inhibition in vivo at 3.5 mg/kg [28]?
**A.** 75.7%

**Q.** And the Activity [29]?
**A.** 13.8%

**Q.** And the Activity [30]?
**A.** Non-Toxic

**Q.** What about the Activity [31] of the same compound?
**A.** 14.2%

**Q.** What about the Activity [32] of the same compound?
**A.** 58.9%
